Columns and labels:
Assay type in all cases: cell-based
[1] = system: Amycolatopsis keratiniphila NRRL B24117; assay: HiTES-IMS elicitor screen and validation, cryptic metabolites of A. keratiniphila; settings: for elicitation of keratinimicin A and keratinicyclin B, follow-up experiments: 7.8 μM vincamine, 2 μM Dhe, HR-MS; for elicitation of keratinimicin A (m/z 1811) synthesis / induction of compound with m/z 1286 / induction of compound with m/z 1425: HiTES-IMS, 502-member natural products library
Method: (§1) In other examples, freshly-collected spores of S. canus or A. keratiniphila (˜10^7) were transferred to 50 mL YEME medium (3% (w/v) yeast extract, 5% peptone, 3% malt extract, 1% glucose, 34% sucrose, and 5 mM MgCl2.6H2O) in a 250 mL Erlenmeyer flask fitted with a stainless-steel spring and cultured at 30° C./250 rpm for 3 days. Mycelia were then collected by centrifugation (10 min, 3000 g, RT) and diluted into 300 mL of R4 medium to give a final concentration of 0.05% (w/v). R4 medium^1 consisted of 0.5% (w/v) glucose, 0.1% yeast extract, 0.5% MgCl2.6H2O, 0.2% CaCl2.2H2O, 0.15% proline, 0.118% valine, 0.28% TES, 50 mg/L casamino acid, 100 mg/L K2SO4, and 1× trace element solution, which contains 40 mg/L ZnCl2, 200 mg/L FeCl3.6H2O, 10 mg/L CuCl2.2H2O, 10 mg/L MnCl2.4H2O, 10 mg/L Na2B4O7.10H2O, and 10 mg/L (NH4)6Mo7O24.4H2O). Subsequently 300 μL were dispensed into six deep-well 96-well plates using a MultiFlo Microplate Dispenser. The wells were supplemented with candidate elicitors from the same 502-member natural products library used above with the aid of a CyBi-Well automated liquid transfer robot. Each well received 0.85 μL of an elicitor (from a stock concentration of 10 mM). The plates were sealed with air-permeable membranes and grown at 30° C./250 rpm. After 5 days, the samples were desalted as described above for P. protegens.
(§2) In one example, a laser ablation electrospray ionization (LAESI) DP1000 system (Protea Bioscience) coupled to a LTQ XL mass spectrometer (Thermo) was used for IMS analysis. The extension tube connecting the two instruments was kept at 130° C. with an external heater and the sample stage was kept at 10° C. during analysis. Sheath gas flow was set to 2.0 L/h. Eighty laser pulses were applied to each well to ablate samples using an 80% laser energy setting (˜850 μJ) and a 10 Hz frequency. A solution of 2:1 MeCN/water with 0.1% acetic acid (v/v) was supplied as the electrospray solution by a syringe pump running at a flow rate of 1 μL/min. The emitter was connected to high voltage power operating at +4000V or +4500V in positive ion detection mode. All data were visualized in ProteaPlot software.
In one example, after data collection, the signals observed in each well were extracted using GMSU-LAESI software (Gubbs, Inc), which gave all m/z values and the corresponding intensities per well (i.e. per elicitor). The data were binned in 1 m/z units for 3D-plotting. Signals with an intensity lower than a set threshold were not included in the 3D plots. The data were plotted in MatLab using the bar3 function. The component 2D plots were extracted from the corresponding 3D data in MatLab and plotted in Excel. The 2D plots were normalized to the highest intensity peak. Each signal was correlated with an elicitor.
Application of HiTES-IMS to Rare Actinomycetes. The disclosed approach was also applied to rare actinomycetes, a group of bacteria that account for some structurally fascinating and functionally potent metabolites, including the antibiotic of-last-resort vancomycin as well as the anticancer agent calicheamicin. Rare actinomycetes are an ideal test case for HiTES-IMS because in addition to their abundance of silent BGCs, they are difficult to manipulate genetically, thus all but precluding transcriptional reporter assays. Amycolatopsis keratiniphila NRRL B24117 were chosen as a test case. Its genome has not been sequenced, but efforts to find further BGCs that encode glycopeptide antibiotics (GPAs) using PCR had shown that it contains a vancomycin-like BGC, though a product has not yet been reported. A. keratiniphila was subjected to HiTES-IMS and obtained the metabolome shown, focusing on the mass range of typical GPAs (FIG. 9A). […] Additionally, a compound with m/z 1425 was induced by similar elicitors, including galangin and evodiamine (FIG. 10B). […]

[2] = system: Amycolaptopsis sp. B-24117; assay: LAESI-MS elicitor screen (FIG. 20); settings: concentration of 30 μM each
Method: In another example, to commence a screen, Amycolaptopsis sp. B-24117 spore stocks were used to inoculate 100 mL of R4 medium in a 500 mL Erlenmeyer flask (approx. 10^6 spores). These were grown overnight and then dispensed into 5×95 CORNING® COSTAR® 96 well cell culture plates using a BioTek MULTIFLO™ microplate dispenser. 150 μL was dispensed into each well, which were then supplemented with each 1 μL from the Natural Products small molecule library (Enzo Scientific). The plates were grown again at 30° C. and 250 rpm for 4 days before being imaged using a Laser Ablation Electrospray Mass Spectrometer (LAESI-MS), which consisted of a Protea Biosciences LAESI® DP-1000 module coupled to a THERMO SCIENTIFIC™ LTQ mass spectrometer. Imaging of each plate was conducted as per manufacturer instructions using 1:1 MeCN/water at a flow rate of 1 μL/min to ablate the samples into the mass spectrometer. The spectrum was collected for 8 seconds per well. The data were then analyzed using ProteaPlot software, searching for mass ions that were induced by elicitors and absent in untreated samples. Referring to FIG. 20, this led to identification of a mass ion (reference 230, m/s 1810, keratinimicin A).

[3] = system: Streptomyces canus NRRL B3980; assay: HiTES-IMS elicitor screen and flask validation, cryptic metabolites of S. canus
Method: as §1, §2
In one example, after data collection, the signals observed in each well were extracted using GMSU-LAESI software (Gubbs, Inc), which gave all m/z values and the corresponding intensities per well (i.e. per elicitor). The data were binned in 1 m/z units for 3D-plotting. […]
Application of HiTES-IMS to Streptomycetes. […] Three clusters of peaks, representing three compound families appeared to be elicited: compounds were detected with m/z ranging from 1260-1295, which further analysis identified as the amphomycins. […] A second set of induced compounds was also detected with m/z ranging from 1220-1245. […]

[4] = system: Pseudomonas protegens Pf-5; assay: HiTES-IMS elicitor screen and flask validation, orfamide production; settings: for elicitation of orfamide production: HiTES-IMS, 502-member natural products library, 96-well plates
Method: In one example, P. protegens was streaked out onto an LB-agar plate from frozen culture stocks and grown at 30° C. overnight. Colonies were used to inoculate 5 mL of LB in a 14 mL sterile culture tube, which was cultured 12-13 h at 30° C./250 rpm. The overnight culture was then used to inoculate 550 mL LB in a sterile Erlenmeyer flask to an initial optical density at 600 nm (OD600 nm) of 0.01. The culture was distributed into six sterile, deep-well 96-well plates (0.9 mL per well) using a MultiFlo Microplate Dispenser (BioTek). Subsequently, elicitors were added from a commercially-available 502-member natural products library (Enzo Scientific, cat #BML-2865) using a CyBi-Well automated liquid transfer robot (CyBio). Each well received 2.5 μL of an elicitor (from a stock concentration of 10 mM). The plates were sealed with air-permeable membranes and grown at 25° C./200 rpm. After 44 h, the plates were spun down, supernatants loaded onto a 96-well Strata C8-resin (Phenomenex), and the material eluted with 600 μL of 50% and 600 μL 100% MeCN into fresh 96 well plates. The eluates were then dried in a speedvac and resuspended in 30 μL of 40% MeCN (in water).
In one example, a laser ablation electrospray ionization (LAESI) DP1000 system (Protea Bioscience) coupled to a LTQ XL mass spectrometer (Thermo) was used for IMS analysis. The extension tube connecting the two instruments was kept at 130° C. with an external heater and the sample stage was kept at 10° C. during analysis. Sheath gas flow was set to 2.0 L/h. […]
As another example, Orfamides are lowly-expressed metabolites isolated from Pseudomonas protegens Pf-5 (hereafter P. protegens). […] The resulting metabolomes were analyzed using laser ablation-coupled electrospray ionization MS (LAESI-MS), an emerging method in which a mid-IR laser beam generates an ablation plume of metabolites that are ionized by an electrospray and introduced into the mass spectrometer. […] No signals were detected below m/z 1250 and above m/z 1650. […]

[5] = HiTES-IMS, 502-member natural products library

CC(C)[C@@]1(NC(=O)[C@@H]2C[C@@H]3c4cccc5[nH]cc(c45)C[C@H]3N(C)C2)O[C@@]2(O)[C@@H]3CCCN3C(=O)[C@H](Cc3ccccc3)N2C1=O [dihydroergocristine]
elicitation of keratinimicin A and keratinicyclin B, follow-up experiments [1]: strong stimulatory activity | elicitation of keratinimicin A (m/z 1811) synthesis [1]: most effective elicitors | elicitation of mass ion m/s 1810, keratinimicin A [2]: best elicitors

CC[C@H]1[C@@H]2C[C@H]3[C@@H]4N(C)c5ccccc5[C@]45C[C@@H]([C@H]2[C@H]5O)N3[C@@H]1O [ajmaline]
induction of compound with m/z 1286 [1]: induced

C=C[C@H]1C[N@@]2CC[C@H]1C[C@H]2[C@H](O)c1ccnc2ccc(OC)cc12 [quinine]
elicitation of amphomycins (m/z 1260-1295) [3, 5]: best elicitors

CC[C@]12CCCN3CCc4c(n(c5ccccc45)[C@@](O)(C(=O)OC)C1)[C@@H]32 [vincamine]
elicitation of keratinimicin A and keratinicyclin B, follow-up experiments [1]: strong stimulatory activity | elicitation of keratinimicin A (m/z 1811) synthesis [1]: most effective elicitors

C[C@@]12CCc3occc3[C@H]1CC[C@@]13C[C@@H](CC[C@H]12)[C@@](O)(CO)C3 [cafestol]
elicitation of orfamide production [4]: Optimal production | induction of orfamide A ([4]; flask cultures, HPLC-MS, 22 μM): stimulatory activity was further confirmed

O=C1Cc2c([nH]c3ccc(Br)cc23)-c2ccccc2N1 [kenpaullone]
elicitation of canucin A (m/z 1579) synthesis [3, 5]: most effective elicitor | induction of canucin A and B ([3]; validation, flask cultures, 17 μM): strong induction

O=c1c(O)c(-c2ccccc2)oc2cc(O)cc(O)c12 [galangin]
induction of compound with m/z 1286 [1]: induced | induction of compound with m/z 1425 [1]: induced

CCC1=C[C@@H]2CN(C1)Cc1c([nH]c3ccccc13)[C@@](C(=O)OC)(c1cc3c(cc1OC)N(C)[C@H]1[C@@](O)(C(=O)OC)[C@H](OC(C)=O)[C@]4(CC)C=CCN5CC[C@]31[C@@H]54)C2 [vinorelbine]
elicitation of orfamide production [4]: Optimal production

O=c1c(O)c(-c2ccc(O)cc2O)oc2cc(O)cc(O)c12 [morin]
elicitation of amphomycins (m/z 1260-1295) [3, 5]: best elicitors

O=C1c2ccccc2-n2c1nc1ccccc1c2=O [tryptanthrin]
elicitation of mass ion m/s 1810, keratinimicin A [2]: best elicitors

evodiamine
induction of compound with m/z 1286 [1]: induced | induction of compound with m/z 1425 [1]: induced

From patent US11549950B2, “Cryptic metabolites and method for activating silent biosynthetic gene clusters in diverse microorganisms” (The Trustees of Princeton University, priority 2017, dated 2023)
